In assay [1] the test system is human breast MCF-7 cells. The assay can be described thus: MTT cytotoxicity test, MCF-7. It is filed as cell-based. As to conditions: 72 h, medium with 1% DMF. How it is done:
(§1) Human ovarian A2780 and cisplatin-resistant A2780cisR cells were maintained in Roswell Park […] (RPMI) 1640 medium supported with 10% FBS, 2 mM L-glutamine, and 100 unit/mL penicillin/streptomycin. Human lung carcinoma A549 cells, cisplatin-resistant A549cisR cells, and human breast MCF-7 cells were cultured in Dulbecco's Modified Eagle Medium (DMEM) with 10% FBS and 100 units penicillin/streptomycin.
(§2) The viability of cancer cells exposed to the compounds was evaluated by means of MTT assay. Cells were seeded in 96-well plates at a density of 3,000 cells per well and incubated until the cell confluency reached 50%. Then, the medium was removed and replaced with fresh medium containing different concentrations of complexes with 1% DMF. For complex 3a and 3b with A2780, A2780CisR, A549 and A549CisR cells, the medium used for replacement contains no DMF. After 72 h, the medium was changed to serum-free medium containing 1 mg/mL MTT. After 2 h additional incubation, the medium was removed, and DMSO (200 μL) was delivered to each well to dissolve the formed purple formazan. The absorbance at 570 nm and 730 nm of each well was measured using a microplate reader (BioTek PowerWave XS).

In assay [2] the test system is cisplatin-resistant A2780cisR cells. Nature of the assay: MTT cytotoxicity test, A2780cisR. Format: cell-based, Human. As to conditions: 72 h, medium with 1% DMF (no DMF for 3a and 3b). The protocol: as §1, §2
Assay [3] deals with Human ovarian A2780 cells. Nature of the assay: MTT cytotoxicity test, A2780. It is filed as cell-based. As to conditions: 72 h, medium with 1% DMF (no DMF for 3a and 3b). How it is done:
as §1, §2

Assay [4] has as its system cisplatin-resistant A549cisR cells. Nature of the assay: MTT cytotoxicity test, A549cisR. It is filed as cell-based, Human. Particulars: 72 h, medium with 1% DMF (no DMF for 3a and 3b). How it is done: as §1, §2
For assay [5], the system named is Human lung carcinoma A549 cells. The assay can be described thus: MTT cytotoxicity test, A549. It is filed as cell-based. As to conditions: 72 h, medium with 1% DMF (no DMF for 3a and 3b). The protocol: as §1, §2

A value given as a limit tells only on which side of the number the result lay.

For `N.N.[Cl][Pt][Cl]` [cisplatin, reference compound], the IC50 in assay [1] came out at 18 ± 3 µM; in assay [2], 23 ± 6 µM; in assay [3], 2.1 ± 0.6 µM; in assay [4], 12 ± 1 µM; in assay [5] it was 2 ± 0.1 µM.
Consider [Pt(C26H24P2)2]Cl2 [Complex 3a], for which the IC50 in assay [1] amounted to 7 ± 1 µM; in assay [2], 5 ± 1 µM; in assay [3], 12 ± 3 µM; in assay [4], 1.3 ± 0.1 µM; in assay [5], 3.6 ± 0.2 µM.
On to [Pt(C54H52P2)]Cl2 [Complex 3b], for which the IC50 in assay [1] is 0.2 ± 0.01 µM; in assay [2] it was 2.6 ± 0.6 µM; in assay [3] it was 0.23 ± 0.09 µM; in assay [4] it was 0.07 ± 0.01 µM; in assay [5], 0.48 ± 0.02 µM.
As for t-[Pt(acetato)2(C9H17P)2] [Complex 2a], the IC50 in assay [1] is 7 ± 1 µM; in assay [2] it was 7 ± 2 µM; in assay [3], 8 ± 1 µM; in assay [5] it was 28 ± 3 µM.
“t-[Pt(acetato)2(C17H14NP)2] [Complex 2e]”: the IC50 in assay [1] was > 9.4 µM; in assay [2], > 9.4 µM; in assay [3], > 9.4 µM; in assay [5], > 11.1 µM.
Consider “t-[Pt(acetato)2(C18H12Cl3P)2] [Complex 2c]”, for which the half-inhibitory concentration (IC50) in assay [1] amounted to 18 ± 2 µM; in assay [2] it was 4 ± 1 µM; in assay [3] it was 4 ± 1 µM; in assay [5], 24 ± 7 µM.
Regarding t-[Pt(acetato)2(C18H21P)2] [Complex 2d], the IC50 in assay [1] was > 2.4 µM; in assay [2], > 2.4 µM; in assay [3] it was > 2.4 µM; in assay [5], > 2.7 µM.
Take t-[Pt(acetato)2(C21H21P)2] [Complex 2b]: the IC50 in assay [1] was 4 ± 0.3 µM; in assay [2] it was 4 ± 1 µM; in assay [3], 4 ± 1 µM; in assay [5], 6.1 ± 0.3 µM.
In the case of t-[Pt(acetato)2(PPh3)2] [Complex 1a], the IC50 was found to be 10 ± 1 µM in assay [1]; 3.3 ± 0.8 µM in assay [2]; 4.3 ± 0.6 µM in assay [3]; 5 ± 1 µM in assay [4]; 3.3 ± 0.6 µM in assay [5].
Take “t-[Pt(acetato)(benzoato)(PPh3)2] [Complex 1d]”: the IC50 worked out at 3.1 ± 0.2 µM in assay [2], 4.9 ± 0.6 µM in assay [3], 5 ± 1 µM in assay [4] and 5 ± 3 µM in assay [5].
On the same counts, the results for t-[Pt(phthalato)2(PPh3)2] [Complex 1c] are 10 ± 2 µM, 18 ± 3 µM, 7 ± 2 µM and 7 ± 1 µM.
With t-[Pt(succinato)2(PPh3)2] [Complex 1b], the IC50 in assay [2] is 13 ± 1 µM; in assay [3], 15 ± 1 µM; in assay [4] it was 8 ± 5 µM; in assay [5], 5.3 ± 0.6 µM.
Regarding “t-[Pt(succinato)(benzoato)(PPh3)2] [Complex 1e]”, the IC50 is 7.2 ± 0.2 µM in assay [2], 8 ± 4 µM in assay [3], 5 ± 2 µM in assay [4] and 5 ± 0.8 µM in assay [5].

These data come from patent publication US12304920B2, “Platinum complex, its preparation and therapeutic use” (CITY UNIVERSITY OF HONG KONG, priority 2020, dated 2025).
